According to ChEMBL document CHEMBL4507328, “Data for DCP probe BAY-390” (2021):
pIC50, pKi: −log10 of the molar value. The source made the active and inactive calls. No cut-off for these calls is given here.

Legend:
[1] = target: T1, Glutamate NMDA receptor (Rattus norvegicus) (UniProt P35439+Q00959+Q00960+Q00961+Q62645+Q8VHN2+Q9R1M7); conditions: Compound concentration 10.0 uM
[2] = target: Sodium-dependent dopamine transporter (Homo sapiens, UniProt Q01959); experiment: Inhibition of Transporter, Dopamine (DAT) at compound concentration of 10.0 uM in the Eurofins-Panlabs radioligand binding assay (Eurofins_assay_220320); set-up: ligand concentration 0.15 nM, non-specific ligand with concentration 10 uM Nomifensine, incubation time 3 h, incubation temperature 4 C
[3] = target: Progesterone receptor (Homo sapiens) (UniProt P06401); conditions: Compound concentration 10.0 uM
[4] = target: Beta-3 adrenergic receptor (Homo sapiens) (UniProt P13945); conditions: Compound concentration 10.0 uM
[5] = target: B1 bradykinin receptor (Homo sapiens) (UniProt P46663); experiment: Inhibition of Bradykinin B1 at 10 µM in the Eurofins-Panlabs radioligand binding assay (Eurofins_assay_212510); conditions: Compound concentration 10.0 uM
[6] = target: Purinergic P2Y (Rattus norvegicus) (UniProt O35811+Q9EPX4+P49651+Q63371+P41232+O35881+Q6GUG4); conditions: Compound concentration 10.0 uM
[7] = target: Type-1 angiotensin II receptor (Homo sapiens) (UniProt P30556); conditions: Compound concentration 10.0 uM
[8] = target: T1, Glutamate NMDA receptor (Rattus norvegicus); conditions: Compound concentration 10.0 uM; remark: listed apart in the source
[9] = target: 5-hydroxytryptamine receptor 1B (Homo sapiens) (UniProt P28222); conditions: Compound concentration 10.0 uM
[10] = target: Endothelin receptor type B (Homo sapiens) (UniProt P24530); conditions: Compound concentration 10.0 uM
[11] = target: ANK_REP_REGION domain-containing protein (Cavia porcellus, UniProt H0VJD1); experiment: FLIPR Ca2+ assay (guinea pig TRPA1)
[12] = target: Beta-2 adrenergic receptor (Homo sapiens) (UniProt P07550); conditions: Compound concentration 10.0 uM
[13] = target: Glucocorticoid receptor (Homo sapiens) (UniProt P04150); conditions: Compound concentration 10.0 uM
[14] = target: Alpha-2A adrenergic receptor (Homo sapiens) (UniProt P08913); conditions: Compound concentration 10.0 uM
Rattus norvegicus = species on record: Rattus norvegicus; conditions: Compound concentration 10.0 uM
[15] = target: Adenosine Transporter (Cavia porcellus) (UniProt H0V4R7+H0UUG1+H0V3Z5); experiment: Inhibition of Transporter, Adenosine at compound concentration of 10.0 uM in the Eurofins-Panlabs radioligand binding assay (Eurofins_assay_202000); assay type: protein assay; set-up: ligand concentration 0.5 nM, non-specific ligand with concentration 5 uM Nitrobenzylthioinosine, incubation time 30 min, incubation temperature 25 C; conditions: Compound concentration 10.0 uM
[16] = target: Motilin receptor (Homo sapiens) (UniProt O43193); conditions: Compound concentration 10.0 uM
[17] = target: Androgen receptor (Homo sapiens) (UniProt P10275); conditions: Compound concentration 10.0 uM
[18] = target: Histamine H3 receptor (Homo sapiens) (UniProt Q9Y5N1); conditions: Compound concentration 10.0 uM
Histamine H3 receptor (Homo sapiens), sequence (Q9Y5N1 whole entry): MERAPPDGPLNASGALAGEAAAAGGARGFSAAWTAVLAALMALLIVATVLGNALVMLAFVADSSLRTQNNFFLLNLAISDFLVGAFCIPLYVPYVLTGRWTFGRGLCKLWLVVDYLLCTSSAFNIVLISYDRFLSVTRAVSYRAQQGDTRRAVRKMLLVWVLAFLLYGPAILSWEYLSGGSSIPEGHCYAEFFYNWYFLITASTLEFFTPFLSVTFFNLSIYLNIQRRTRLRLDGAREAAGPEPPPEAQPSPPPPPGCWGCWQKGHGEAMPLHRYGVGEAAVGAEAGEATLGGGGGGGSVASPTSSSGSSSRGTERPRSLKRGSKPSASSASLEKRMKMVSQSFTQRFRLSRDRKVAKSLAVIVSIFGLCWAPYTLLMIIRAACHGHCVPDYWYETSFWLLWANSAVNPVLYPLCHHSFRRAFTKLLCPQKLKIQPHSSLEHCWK

Sodium-dependent dopamine transporter, sequence (Q01959 whole entry): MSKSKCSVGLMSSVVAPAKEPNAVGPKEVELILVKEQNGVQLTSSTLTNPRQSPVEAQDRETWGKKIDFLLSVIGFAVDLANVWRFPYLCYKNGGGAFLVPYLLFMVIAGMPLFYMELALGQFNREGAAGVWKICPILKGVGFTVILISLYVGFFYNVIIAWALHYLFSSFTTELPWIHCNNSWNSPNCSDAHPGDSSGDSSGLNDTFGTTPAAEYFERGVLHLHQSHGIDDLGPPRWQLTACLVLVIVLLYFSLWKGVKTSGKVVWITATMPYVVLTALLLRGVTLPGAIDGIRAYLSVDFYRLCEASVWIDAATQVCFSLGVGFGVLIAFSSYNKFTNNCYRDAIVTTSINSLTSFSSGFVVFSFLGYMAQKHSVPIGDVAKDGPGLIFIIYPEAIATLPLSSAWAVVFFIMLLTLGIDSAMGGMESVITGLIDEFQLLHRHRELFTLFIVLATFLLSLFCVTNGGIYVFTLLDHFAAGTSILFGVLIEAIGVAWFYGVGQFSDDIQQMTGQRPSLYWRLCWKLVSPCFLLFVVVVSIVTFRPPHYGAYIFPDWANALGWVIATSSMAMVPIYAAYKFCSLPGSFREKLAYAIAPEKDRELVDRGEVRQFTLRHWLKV
B1 bradykinin receptor (Homo sapiens), sequence (P46663 whole entry): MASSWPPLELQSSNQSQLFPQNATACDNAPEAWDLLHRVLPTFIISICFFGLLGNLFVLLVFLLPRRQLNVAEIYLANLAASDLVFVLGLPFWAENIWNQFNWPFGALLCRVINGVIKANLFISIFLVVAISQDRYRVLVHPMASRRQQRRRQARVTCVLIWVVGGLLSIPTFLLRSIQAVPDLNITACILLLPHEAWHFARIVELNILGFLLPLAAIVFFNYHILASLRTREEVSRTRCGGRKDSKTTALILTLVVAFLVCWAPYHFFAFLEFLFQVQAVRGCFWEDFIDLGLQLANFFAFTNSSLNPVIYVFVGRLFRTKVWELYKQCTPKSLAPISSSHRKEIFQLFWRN
Type-1 angiotensin II receptor (Homo sapiens), sequence (P30556 whole entry): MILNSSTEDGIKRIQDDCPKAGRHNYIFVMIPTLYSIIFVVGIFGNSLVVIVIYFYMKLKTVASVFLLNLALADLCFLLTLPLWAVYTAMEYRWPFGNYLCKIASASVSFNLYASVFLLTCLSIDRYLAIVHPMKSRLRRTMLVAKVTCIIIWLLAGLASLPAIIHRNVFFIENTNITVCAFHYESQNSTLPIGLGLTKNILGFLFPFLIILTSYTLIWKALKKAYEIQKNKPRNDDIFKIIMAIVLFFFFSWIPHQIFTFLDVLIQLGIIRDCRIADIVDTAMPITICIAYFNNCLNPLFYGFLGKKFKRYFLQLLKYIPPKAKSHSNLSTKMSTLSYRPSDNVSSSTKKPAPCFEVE
Androgen receptor (Homo sapiens), sequence (P10275 whole entry): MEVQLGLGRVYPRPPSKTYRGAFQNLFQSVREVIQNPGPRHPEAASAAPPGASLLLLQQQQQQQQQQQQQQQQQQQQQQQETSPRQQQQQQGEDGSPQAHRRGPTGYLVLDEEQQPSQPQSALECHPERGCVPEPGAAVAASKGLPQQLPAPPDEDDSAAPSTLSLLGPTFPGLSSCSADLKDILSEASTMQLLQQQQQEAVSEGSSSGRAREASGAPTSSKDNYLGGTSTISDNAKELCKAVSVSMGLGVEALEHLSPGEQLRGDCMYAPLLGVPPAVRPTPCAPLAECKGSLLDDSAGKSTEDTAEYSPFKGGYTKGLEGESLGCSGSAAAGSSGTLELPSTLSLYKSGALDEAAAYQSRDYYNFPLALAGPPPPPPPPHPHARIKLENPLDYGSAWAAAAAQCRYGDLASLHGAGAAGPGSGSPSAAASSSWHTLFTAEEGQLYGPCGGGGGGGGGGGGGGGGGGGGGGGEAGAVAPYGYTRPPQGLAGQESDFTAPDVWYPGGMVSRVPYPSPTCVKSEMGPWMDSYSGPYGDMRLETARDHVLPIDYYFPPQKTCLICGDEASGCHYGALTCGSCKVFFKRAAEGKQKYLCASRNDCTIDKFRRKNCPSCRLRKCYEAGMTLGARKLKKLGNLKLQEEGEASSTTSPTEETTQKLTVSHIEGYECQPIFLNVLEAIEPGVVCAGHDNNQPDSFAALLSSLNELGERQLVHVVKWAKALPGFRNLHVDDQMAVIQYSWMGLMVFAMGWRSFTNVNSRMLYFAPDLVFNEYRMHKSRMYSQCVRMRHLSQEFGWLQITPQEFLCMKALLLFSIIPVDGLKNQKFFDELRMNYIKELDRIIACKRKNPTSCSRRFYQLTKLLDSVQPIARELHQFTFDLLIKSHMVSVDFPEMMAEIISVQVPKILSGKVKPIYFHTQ
ANK_REP_REGION domain-containing protein, sequence (H0VJD1 whole entry, the tested form may be a part): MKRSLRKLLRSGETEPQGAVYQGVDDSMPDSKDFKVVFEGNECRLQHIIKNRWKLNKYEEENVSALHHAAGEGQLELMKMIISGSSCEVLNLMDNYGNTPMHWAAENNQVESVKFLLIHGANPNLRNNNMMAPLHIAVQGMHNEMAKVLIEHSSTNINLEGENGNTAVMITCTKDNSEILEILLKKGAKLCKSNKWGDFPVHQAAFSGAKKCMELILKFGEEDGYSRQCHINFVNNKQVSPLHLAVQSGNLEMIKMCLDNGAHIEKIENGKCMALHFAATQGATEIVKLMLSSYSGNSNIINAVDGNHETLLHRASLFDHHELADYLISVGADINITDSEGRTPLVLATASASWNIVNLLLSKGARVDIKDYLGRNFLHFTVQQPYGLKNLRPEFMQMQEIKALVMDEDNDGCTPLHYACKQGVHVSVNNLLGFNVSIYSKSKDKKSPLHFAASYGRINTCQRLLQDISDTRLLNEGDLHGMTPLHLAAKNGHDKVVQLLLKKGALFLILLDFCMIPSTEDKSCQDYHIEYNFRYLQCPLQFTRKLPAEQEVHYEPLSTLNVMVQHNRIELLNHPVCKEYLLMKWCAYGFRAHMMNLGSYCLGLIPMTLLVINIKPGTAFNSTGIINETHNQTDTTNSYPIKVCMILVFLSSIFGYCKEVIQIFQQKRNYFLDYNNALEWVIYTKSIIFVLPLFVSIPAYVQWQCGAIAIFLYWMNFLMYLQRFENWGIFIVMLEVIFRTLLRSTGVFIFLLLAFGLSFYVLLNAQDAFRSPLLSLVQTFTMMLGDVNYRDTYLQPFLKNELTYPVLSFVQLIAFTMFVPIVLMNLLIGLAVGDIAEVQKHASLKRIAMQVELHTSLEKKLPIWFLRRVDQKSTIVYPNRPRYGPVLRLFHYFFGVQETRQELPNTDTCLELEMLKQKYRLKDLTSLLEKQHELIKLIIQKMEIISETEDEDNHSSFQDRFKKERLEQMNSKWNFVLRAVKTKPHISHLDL
Beta-3 adrenergic receptor (Homo sapiens), sequence (P13945 whole entry, looked up): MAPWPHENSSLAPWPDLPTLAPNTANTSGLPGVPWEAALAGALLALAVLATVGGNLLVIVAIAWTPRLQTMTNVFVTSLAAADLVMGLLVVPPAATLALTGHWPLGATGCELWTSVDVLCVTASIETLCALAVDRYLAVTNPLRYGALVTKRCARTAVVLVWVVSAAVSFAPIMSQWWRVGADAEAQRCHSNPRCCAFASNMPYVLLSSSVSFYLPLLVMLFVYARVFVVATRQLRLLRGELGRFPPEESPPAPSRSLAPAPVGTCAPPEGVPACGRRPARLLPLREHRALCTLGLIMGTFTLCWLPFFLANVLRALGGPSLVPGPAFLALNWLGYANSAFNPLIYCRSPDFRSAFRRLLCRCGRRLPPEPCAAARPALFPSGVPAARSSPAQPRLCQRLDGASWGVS
Motilin receptor (Homo sapiens), sequence (O43193 whole entry): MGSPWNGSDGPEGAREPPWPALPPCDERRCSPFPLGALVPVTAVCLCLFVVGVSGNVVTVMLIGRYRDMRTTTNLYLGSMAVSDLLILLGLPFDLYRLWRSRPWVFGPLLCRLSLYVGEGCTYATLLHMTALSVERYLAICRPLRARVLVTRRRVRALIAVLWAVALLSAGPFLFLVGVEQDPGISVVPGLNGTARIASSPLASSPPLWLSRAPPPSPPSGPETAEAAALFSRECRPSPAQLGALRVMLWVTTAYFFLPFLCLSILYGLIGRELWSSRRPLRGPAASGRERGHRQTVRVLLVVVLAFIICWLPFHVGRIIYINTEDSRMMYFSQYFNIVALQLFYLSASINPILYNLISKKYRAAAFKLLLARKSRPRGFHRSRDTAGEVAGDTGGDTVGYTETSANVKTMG
5-hydroxytryptamine receptor 1B (Homo sapiens), sequence (P28222 whole entry): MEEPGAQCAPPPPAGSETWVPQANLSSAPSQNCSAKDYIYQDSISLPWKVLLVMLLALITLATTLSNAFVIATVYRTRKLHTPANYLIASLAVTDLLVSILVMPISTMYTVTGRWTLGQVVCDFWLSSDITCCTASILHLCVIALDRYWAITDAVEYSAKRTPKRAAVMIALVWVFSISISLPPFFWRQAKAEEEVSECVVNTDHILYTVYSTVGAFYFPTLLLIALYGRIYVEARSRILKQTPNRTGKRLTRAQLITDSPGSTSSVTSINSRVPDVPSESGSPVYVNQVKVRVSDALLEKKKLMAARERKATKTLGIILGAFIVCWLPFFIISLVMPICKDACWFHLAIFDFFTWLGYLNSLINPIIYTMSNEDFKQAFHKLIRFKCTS

O[C@]1(C(F)(F)F)CCCC[C@H]1Nc1ccc(F)cc1 [BAY-390]
inhibition [1]: 5%
pIC50 [2]: 5.92
pKi [2]: 6.03
inhibition [3]: 65%
inhibition [4]: 1%
inhibition [5]: 9%
inhibition [6]: -6%
inhibition [7]: 4%
inhibition [8]: 9%
inhibition [9]: -3.12%
inhibition [10]: -4%
IC50 [11]: 68 nM (active)
inhibition [12]: 11%
inhibition [13]: 4%
inhibition [14]: 7%
inhibition (Rattus norvegicus): -5%
inhibition [15]: -2%
inhibition [16]: 13%
inhibition [17]: 47%
inhibition [18]: -4%
